Reference: US7998974B2, “Fused heterocyclic compounds and their use as sirtuin modulators” (Sirtris Pharmaceuticals, Inc., priority 2005, dated 2011)

Experiments:
human SIRT3 = biological target: T1, human SIRT3 (Homo sapiens, UniProt Q9NTG7); experiment: Fluorescence polarization assay to identify modulators of SIRT3 activity; format: biochemical; conditions: for EC50: activation of SIRT3 (Table 5), read-out: ED50 (the source's name); for IC50: inhibition of SIRT3 (Table 6)
T1 sequence (Q9NTG7 102-399): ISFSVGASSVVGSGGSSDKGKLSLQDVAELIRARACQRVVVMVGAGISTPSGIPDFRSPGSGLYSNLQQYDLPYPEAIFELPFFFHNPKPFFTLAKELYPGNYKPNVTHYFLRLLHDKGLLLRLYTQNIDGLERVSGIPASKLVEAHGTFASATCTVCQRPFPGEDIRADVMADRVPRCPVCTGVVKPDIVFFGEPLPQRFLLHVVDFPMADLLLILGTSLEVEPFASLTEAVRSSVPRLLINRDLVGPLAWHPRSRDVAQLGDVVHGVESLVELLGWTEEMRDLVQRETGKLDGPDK
Source text: A fluorescence polarization assay was used to identify modulators of SIRT3 activity. The same assay may be used to identify modulators of any sirtuin protein. The assay utilizes a peptide substrate based on a fragment of Histone H4, a known sirtuin deacetylation target. The substrate contains a peptide having 14 amino acid residues as follows: Biotin-GASSHSK(Ac)VLK(MR121) (SEQ ID NO: 3) wherein K(Ac) is an acetylated lysine residue. The peptide is labeled with the fluorophore MR121 (excitation 635 nm/emission 680 nm) at the C-terminus and biotin at the N-terminus.
The peptide substrate is exposed to a sirtuin protein in the presence of NAD^+ to allow deacetylation of the substrate and render it sensitive to cleavage by trypsin. Trypsin is then added and the reaction is carried to completion (i.e., the deacetylated substrate is cleaved) releasing the MR121 fragment. Streptavidin is then added to the reaction where it can bind both the uncleaved substrate (i.e., any remaining acetylated substrate) and the non-fluorescent portion of the cleaved peptide substrate (i.e., the biotin containing fragment). The fluorescence polarization signal observed for the full length peptide substrate bound to streptavidin is higher than the fluorescence polarization signal observed for the released MR121 C-terminal fragment. Therefore, the fluorescence polarization obtained is inversely proportional to the level of deacetylation (e.g., the signal is inversely proportional to the activity of the sirtuin protein). Results are read on a microplate fluorescence polarization reader (Molecular Devices Spectramax MD) with appropriate excitation and emission filters.
The fluorescence polarization assays may be conducted as follows: 0.5 μM peptide substrate and 50 μM βNAD^+ is incubated with 2 nM of SIRT3 for 60 minutes at 37° C. in a reaction buffer (25 mM Tris-acetate pH8, 137 mM Na—Ac, 2.7 mM K—Ac, 1 mM Mg—Ac, 0.1% Pluronic F127, 10 mM CaCl2, 1 mM TCEP, 0.025% BSA). Test compounds are solubilized in DMSO and are added to the reaction at 11 concentrations ranging from 0.7 μM to 100 μM. The SIRT3 protein used in the assays corresponded to amino acid residues 102-399 of human SIRT3 with an N-terminal His-tag. The protein was overexpressed in E. coli and purified on a nickel chelate column using standard techniques. After the 60 minute incubation with SIRT3, nicotinamide is added to the reaction to a final concentration of 3 mM to stop the deacetylation reaction and 0.5 μg/mL of trypsin is added to cleave the deacetylated substrate. The reaction is incubated for 30 minutes at 37° C. in the presence of 1 mM streptavidin. Fluorescent polarization is determined at excitation (650 nm) and emissions (680 nm) wavelengths. The level of activity of the sirtuin protein in the presence of the various concentrations of test compound are then determined and may be compared to the level of activity of the sirtuin protein in the absence of the test compound, and/or the level of activity of the sirtuin proteins in the negative control (e.g., level of inhibition) and positive control (e.g., level of activation) described below.
A control for activation of sirtuin activity is conducted using 0.5 μg/mL of sirtuin protein to reach baseline deacetylation of the substrate (e.g., to determine normalized sirtuin activity).

SIRT1 = biological target: T2, SIRT1 (Homo sapiens, UniProt Q96EB6); experiment: Fluorescence polarization or mass spectrometry based assay to identify modulators of SIRT1 activity; format: biochemical; conditions: activation of SIRT1 (Table 3); read-out: ED50 (the source's name);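 note: deacetylation of a fluorophore-tagged p53-derived acetyl peptide by SIRT1, detected as fluorescence polarization after trypsin cleavage and streptavidin binding, compounds tested at 11 doses from 0.7 to 100 µM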
T2 sequence (Q96EB6 1-747): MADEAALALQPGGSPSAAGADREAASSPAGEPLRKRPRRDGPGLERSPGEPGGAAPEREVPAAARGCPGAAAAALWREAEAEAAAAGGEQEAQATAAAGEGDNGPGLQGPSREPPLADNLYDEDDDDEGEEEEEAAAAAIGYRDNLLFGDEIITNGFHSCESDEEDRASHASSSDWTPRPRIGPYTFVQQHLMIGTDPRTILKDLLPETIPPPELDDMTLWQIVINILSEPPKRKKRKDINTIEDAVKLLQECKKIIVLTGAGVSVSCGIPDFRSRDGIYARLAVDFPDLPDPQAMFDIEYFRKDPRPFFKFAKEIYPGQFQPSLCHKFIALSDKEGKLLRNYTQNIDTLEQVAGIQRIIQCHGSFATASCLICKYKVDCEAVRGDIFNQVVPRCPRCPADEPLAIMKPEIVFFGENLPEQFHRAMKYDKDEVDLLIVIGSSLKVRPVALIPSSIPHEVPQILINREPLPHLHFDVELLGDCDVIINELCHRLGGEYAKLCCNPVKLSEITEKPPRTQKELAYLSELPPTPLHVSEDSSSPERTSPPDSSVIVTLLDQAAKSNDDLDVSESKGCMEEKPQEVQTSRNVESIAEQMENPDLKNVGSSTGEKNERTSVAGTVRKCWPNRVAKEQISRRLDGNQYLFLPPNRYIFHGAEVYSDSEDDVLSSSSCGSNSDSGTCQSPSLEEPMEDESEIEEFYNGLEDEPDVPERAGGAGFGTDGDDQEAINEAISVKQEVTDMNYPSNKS

SMILES	EC50 (human SIRT3) [µM]	EC50 (SIRT1) [µM]	IC50 (human SIRT3) [µM]
CC(=O)Nc1ccc(-c2nc3c(C(=O)NC(CC(=O)O)C4CCCCC4)cccn3c2NCc2ccccc2)cc1 (centres unmarked) [Compound 37]	101 to 150	51 to 100	–
Nc1nc2ccc(-c3nc4ccccc4[nH]3)cc2s1 [Compound 14]	101 to 150	101 to 150	–
Cc1csc(NC(=O)CSCC(=O)O)c1-c1nc2ccccc2s1 [Compound 5]	101 to 150	< 50	–
COc1ccc(-c2nc3c(C(=O)NC(CC(=O)O)c4cccc([N+](=O)[O-])c4)cccn3c2NCc2ccccc2)cc1[N+](=O)[O-] (centres unmarked) [Compound 73]	51 to 100	–	–
Cc1ccc(C(CC(=O)O)NC(=O)c2ccn3c(NC4CCCCC4)c(-c4ccc(C#N)cc4)nc3c2)cc1 (centres unmarked) [Compound 81]	51 to 100	–	–
COc1ccc(-c2nc3cc(C(=O)NC(CC(=O)O)C4CCCCC4)ccn3c2NC2CCCCC2)cc1OC (centres unmarked) [Compound 80]	51 to 100	–	–
COc1ccc(-c2nc3c(C(=O)NC(CC(=O)O)C4CCCCC4)cccn3c2NC(C)(C)C)cc1[N+](=O)[O-] (centres unmarked) [Compound 29]	> 150	> 150	–
Cc1ccccc1C(=O)N1CCN(C(=O)c2cccn3c(NCc4ccccc4)c(C(C)C)nc23)CC1 [Compound 87]	–	–	101 to 150
Cc1cc(C(=O)Nc2ccc(-c3nc4ccc(C(=O)NCCCN5CCCC5=O)cn4c3NC3CCCCC3)cc2)no1 [Compound 89]	–	–	101 to 150
CC(NC(=O)c1cccn2c(NCC3CCCO3)c(-c3ccc(N(C)C)cc3)nc12)C(=O)NCCC#N (centres unmarked) [Compound 45]	> 150	51 to 100	–
CN(C)c1ccc(-c2nc3ccc(C(=O)NCC(=O)NCC4CC4)cn3c2NC2CCCCC2)cc1 [Compound 88]	–	–	< 50
COc1ccc(-c2nc3c(C(=O)NC(CC(=O)O)c4cccc(C)c4)cccn3c2Nc2c(C)cccc2C)cc1[N+](=O)[O-] (centres unmarked) [Compound 67]	> 150	–	–
CCCCNc1c(-c2ccc(F)cc2)nc2c(C(=O)NC(CC(=O)O)c3cccc([N+](=O)[O-])c3)cccn12 (centres unmarked) [Compound 71]	51 to 100	–	–
O=C(O)CC(NC(=O)c1cccn2c(NCc3ccccc3)c(-c3ccc(F)cc3)nc12)C1CCCCC1 (centres unmarked) [Compound 79]	51 to 100	–	–
Cc1cccc(C)c1Nc1c(-c2ccc(C#N)cc2)nc2c(C(=O)NC(CC(=O)O)C3CCCCC3)cccn12 (centres unmarked) [Compound 70]	> 150	–	–
COc1cccc(-c2nc3c(C(=O)NC(CC(=O)O)C4CCCCC4)cccn3c2NCc2ccccc2)c1 (centres unmarked) [Compound 69]	51 to 100	–	–
Nc1ccc(C(=O)Nc2nc3cc4sc(NC(=O)c5ccc(N)cc5)nc4cc3s2)cc1 [Compound 86]	–	–	51 to 100
CCCCNc1c(-c2ccc(OC)c([N+](=O)[O-])c2)nc2c(C(=O)NC(C)C(=O)O)cccn12 (centres unmarked) [Compound 75]	51 to 100	–	–
Cc1cccc(C)c1Nc1c(-c2ccc(C#N)cc2)nc2c(C(=O)NC(CC(=O)O)c3cccc([N+](=O)[O-])c3)cccn12 (centres unmarked) [Compound 74]	> 150	–	–
CC(NC(=O)c1cccn2c(NCC3CCCO3)c(-c3ccc(Cl)cc3)nc12)C(=O)NCCC#N (centres unmarked) [Compound 43]	51 to 100	< 50	–
CC(C)(C)Nc1c(-c2ccc(F)cc2)nc2c(C(=O)NC(CC(=O)O)C3CCCCC3)cccn12 (centres unmarked) [Compound 78]	101 to 150	–	–
COc1ccc(-c2nc3c(C(=O)NC(C)C(=O)O)cccn3c2NCc2ccccc2)cc1[N+](=O)[O-] (centres unmarked) [Compound 76]	< 50	–	–
CCCCNc1c(-c2ccc(C#N)cc2)nc2c(C(=O)NC(CC(=O)O)c3cccc([N+](=O)[O-])c3)cccn12 (centres unmarked) [Compound 72]	51 to 100	–	–
N#Cc1ccc(-c2nc3c(C(=O)NC(CC(=O)O)C4CCCCC4)cccn3c2NCc2ccccc2)cc1 (centres unmarked) [Compound 32]	< 50	51 to 100	–
Nc1ccc(-c2nc3ccc(-c4nc5ccc(N)cc5[nH]4)cc3[nH]2)cc1 [Compound 83]	> 150	–	–
